In ChEMBL document CHEMBL1201862, “PubChem BioAssay data set” (2004):
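These data come from cells grown in 96-well plates and exposed to compound for 48 hours at five concentrations. GI50: concentration for 50% inhibition of growth.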 The source made the active and inactive calls. Rule as the data show it: active = GI50 up to about 1.1 µM and inactive = higher.

Tests used:
Assay in all cases: NCI tumour cell line growth inhibition, 48 h
U-251 = system: U-251
MDA-MB-435 = system: MDA-MB-435
SR = system: SR
NCI-H226 = system: NCI-H226
M14 = system: M14
CAKI-1 = system: CAKI-1
COLO 205 = system: COLO 205
RPMI-8226 = system: RPMI-8226
SN12C = system: SN12C
SK-MEL-28 = system: SK-MEL-28
HOP-62 = system: HOP-62
OVCAR-4 = system: OVCAR-4
DU-145 = system: DU-145
HT-29 = system: HT-29
RXF 393 = system: RXF 393
SNB-19 = system: SNB-19
LOX IMVI = system: LOX IMVI
NCI/ADR-RES = system: NCI/ADR-RES
HCC 2998 = system: HCC 2998
SF-268 = system: SF-268

| SMILES | GI50 (U-251) | GI50 (MDA-MB-435) | GI50 (SR) | GI50 (NCI-H226) | GI50 (M14) | GI50 (CAKI-1) | GI50 (COLO 205) | GI50 (RPMI-8226) | GI50 (SN12C) | GI50 (SK-MEL-28) | GI50 (HOP-62) | GI50 (OVCAR-4) | GI50 (DU-145) | GI50 (HT-29) | GI50 (RXF 393) | GI50 (SNB-19) | GI50 (LOX IMVI) | GI50 (NCI/ADR-RES) | GI50 (HCC 2998) | GI50 (SF-268) |
| --- | --- | --- | --- | --- | --- | --- | --- | --- | --- | --- | --- | --- | --- | --- | --- | --- | --- | --- | --- | --- |
| CC(C)(C)[Si](C)(C)OCC1OC(n2cnc3c(N)ncnc32)C2OC(=S)OC12 (centres undefined) | 25.2 µM (inactive) | 19.9 µM (inactive) | 38.5 µM (inactive) | 29.4 µM (inactive) | 45.5 µM (inactive) | 41.3 µM (inactive) | 35.6 µM (inactive) | 37.9 µM (inactive) | 35.5 µM (inactive) | 38.4 µM (inactive) | 36.7 µM (inactive) | 81.3 µM (inactive) | 25.1 µM (inactive) | 29.4 µM (inactive) | 43.9 µM (inactive) | 52.1 µM (inactive) | 28.7 µM (inactive) | 23.5 µM (inactive) |  |  |
| CC(C(=O)O)c1ccc(-n2nnc3c(=O)[nH][nH]c(=O)c32)cc1 (centres undefined) | > 100 µM (inactive) | > 100 µM (inactive) | > 100 µM (inactive) |  | > 100 µM (inactive) | > 100 µM (inactive) | > 100 µM (inactive) | > 100 µM (inactive) | > 100 µM (inactive) | > 100 µM (inactive) | > 100 µM (inactive) | > 100 µM (inactive) | > 100 µM (inactive) |  |  | > 100 µM (inactive) | > 100 µM (inactive) | > 100 µM (inactive) | > 100 µM (inactive) |  |
| NC(=O)N/N=C1\CC2C3CC4C2C4C13 (centres undefined) | > 100 µM (inactive) | > 100 µM (inactive) | > 100 µM (inactive) | > 100 µM (inactive) | > 100 µM (inactive) | > 100 µM (inactive) | > 100 µM (inactive) | > 100 µM (inactive) | > 100 µM (inactive) | > 100 µM (inactive) | > 100 µM (inactive) | 91 µM (inactive) | > 100 µM (inactive) | > 100 µM (inactive) |  | > 100 µM (inactive) | > 100 µM (inactive) | > 100 µM (inactive) | > 100 µM (inactive) | > 100 µM (inactive) |
| c1ccc2c(c1)CCCN1CCc3ccccc3C21 (centres undefined) | 51.5 µM (inactive) | 19.8 µM (inactive) | 58.7 µM (inactive) | 33.3 µM (inactive) | 26.9 µM (inactive) | 93.5 µM (inactive) | 46.7 µM (inactive) | 36.2 µM (inactive) | 57 µM (inactive) | 31.4 µM (inactive) | 50 µM (inactive) | 9.46 µM (inactive) | > 100 µM (inactive) | 29 µM (inactive) |  | 92.3 µM (inactive) | 29.6 µM (inactive) | 78.3 µM (inactive) | 44.3 µM (inactive) | 92 µM (inactive) |
| OC(c1nc2ccccc2s1)(C(F)(F)F)C(F)(F)F | > 100 µM (inactive) | > 100 µM (inactive) |  | > 100 µM (inactive) | > 100 µM (inactive) | > 100 µM (inactive) | > 100 µM (inactive) | > 100 µM (inactive) | > 100 µM (inactive) | > 100 µM (inactive) | > 100 µM (inactive) | > 100 µM (inactive) | > 100 µM (inactive) | > 100 µM (inactive) | > 100 µM (inactive) | > 100 µM (inactive) | > 100 µM (inactive) | > 100 µM (inactive) | > 100 µM (inactive) | > 100 µM (inactive) |
| O=C1/C(=C/c2cccc([N+](=O)[O-])c2)CCCc2ccccc21 | 8.71 µM (inactive) | 9.66 µM (inactive) | 2.86 µM (inactive) | 16.2 µM (inactive) | 13.8 µM (inactive) | 16.5 µM (inactive) | 18.8 µM (inactive) | 11.4 µM (inactive) | 17.3 µM (inactive) | 15.3 µM (inactive) | 15.6 µM (inactive) | 13.7 µM (inactive) | 15 µM (inactive) | 9.84 µM (inactive) |  | 15.2 µM (inactive) | 3.4 µM (inactive) | 9.51 µM (inactive) | 10.3 µM (inactive) | 4.82 µM (inactive) |
| O=C(c1cccc(OCc2ccccc2)c1OCc1ccccc1)N1CCSC1=S | 29.1 µM (inactive) | 27.2 µM (inactive) | 8.36 µM (inactive) | 23.8 µM (inactive) | 33.2 µM (inactive) | 31 µM (inactive) | 12 µM (inactive) | 8.38 µM (inactive) | 19.5 µM (inactive) | 48.5 µM (inactive) | 27.2 µM (inactive) | 56.5 µM (inactive) | 28.1 µM (inactive) | 25.2 µM (inactive) |  | > 46.6 µM (inactive) | 34.2 µM (inactive) | 10.6 µM (inactive) | 28 µM (inactive) | 11.9 µM (inactive) |
| Cc1ccc2c(c1C)CC1(Cc3c(ccc4c3CCC4)C1=O)C2=O (centres undefined) | > 100 µM (inactive) | 46.3 µM (inactive) |  | > 100 µM (inactive) | 52.4 µM (inactive) | > 100 µM (inactive) | > 100 µM (inactive) | > 100 µM (inactive) | > 100 µM (inactive) | > 100 µM (inactive) |  | > 100 µM (inactive) | > 100 µM (inactive) | > 100 µM (inactive) | > 100 µM (inactive) | > 100 µM (inactive) |  | > 100 µM (inactive) | > 100 µM (inactive) | > 100 µM (inactive) |
| Nc1c(C(=O)c2ccccc2)nnc2ccccc12 | 34.5 µM (inactive) | 21.9 µM (inactive) | 38.4 µM (inactive) | 30.4 µM (inactive) | 39.3 µM (inactive) | 29.5 µM (inactive) | 18.5 µM (inactive) | 33.7 µM (inactive) |  | 43.9 µM (inactive) | 24.5 µM (inactive) | 29.8 µM (inactive) | 23.4 µM (inactive) | 25.8 µM (inactive) |  | 37.9 µM (inactive) | 32.4 µM (inactive) | 21.5 µM (inactive) | 23.4 µM (inactive) | 35.6 µM (inactive) |
| CN(CC(=O)O)c1ncc2c(n1)-c1ccccc1SC2 | > 100 µM (inactive) | > 100 µM (inactive) | 92.3 µM (inactive) |  | > 100 µM (inactive) | > 100 µM (inactive) | > 100 µM (inactive) | > 100 µM (inactive) | > 100 µM (inactive) | > 100 µM (inactive) |  | > 100 µM (inactive) | > 100 µM (inactive) | > 100 µM (inactive) |  | > 100 µM (inactive) | > 100 µM (inactive) | > 100 µM (inactive) |  | > 100 µM (inactive) |
| Cc1cc(C)c2c(n1)S(=O)(=O)N(CCCN1CCN(c3cccc(C(F)(F)F)c3)CC1)C(C(=O)c1ccc(Cl)cc1)=C2O | 2.65 µM (inactive) | 3.18 µM (inactive) | 0.507 µM (active) | 2.45 µM (inactive) | 2.65 µM (inactive) | 1.11 µM (active) | 1.84 µM (inactive) |  | 2.02 µM (inactive) | 5.21 µM (inactive) | 5.81 µM (inactive) | 3.06 µM (inactive) | 4.67 µM (inactive) | 4.03 µM (inactive) | 4.34 µM (inactive) | 2.2 µM (inactive) | 0.515 µM (active) | 2.12 µM (inactive) |  | 3.69 µM (inactive) |
| COc1cc(C(O)CCBr)c(OC)cc1C (centres undefined) | 33.2 µM (inactive) | 4.3 µM (inactive) | 13 µM (inactive) | 32.9 µM (inactive) | 4.6 µM (inactive) | 14.9 µM (inactive) | 17.6 µM (inactive) | 6.73 µM (inactive) | 16.4 µM (inactive) | 24.4 µM (inactive) | 28.6 µM (inactive) | 52.8 µM (inactive) | 43.2 µM (inactive) | 6.17 µM (inactive) | 37.2 µM (inactive) | > 75.5 µM (inactive) | 8.95 µM (inactive) | 7.43 µM (inactive) |  | 31.4 µM (inactive) |
| CC1(C)CC(C2=NCCO2)CC(C)(C)N1 | > 100 µM (inactive) | > 100 µM (inactive) | > 100 µM (inactive) | > 100 µM (inactive) | > 100 µM (inactive) | > 100 µM (inactive) | > 100 µM (inactive) | > 100 µM (inactive) | > 100 µM (inactive) | > 100 µM (inactive) | > 100 µM (inactive) | > 100 µM (inactive) | > 100 µM (inactive) | > 100 µM (inactive) | > 100 µM (inactive) | > 100 µM (inactive) | > 100 µM (inactive) | > 100 µM (inactive) |  | > 100 µM (inactive) |
| O=c1n(-c2ccccc2)c(=O)n2n1C1C=CC2CCCCCC1 | > 100 µM (inactive) | > 100 µM (inactive) | > 100 µM (inactive) | > 100 µM (inactive) | > 100 µM (inactive) | > 100 µM (inactive) | > 100 µM (inactive) | 60 µM (inactive) | > 100 µM (inactive) | > 100 µM (inactive) | > 100 µM (inactive) | > 100 µM (inactive) | > 100 µM (inactive) | > 100 µM (inactive) |  | > 100 µM (inactive) | > 100 µM (inactive) | > 100 µM (inactive) | > 100 µM (inactive) | > 100 µM (inactive) |
| C=C(NC(=O)C(=C)NC(=O)c1csc(C2=NC3c4csc(n4)C4NC(=O)c5csc(n5)C(C(C)(O)C(C)O)NC(=O)C5CSC(=N5)/C(=C/C)NC(=O)C(C(C)O)NC(=O)c5csc(n5)C3(CC2)NC(=O)C(C)NC(=O)C(=C)NC(=O)C(=C)NC(=O)C(C(C)C)NC2C=Cc3c(C(C)O)cc(nc3C2O)C(=O)OC4C)n1)C(N)=O (centres undefined) | 0.877 µM (active) | 0.743 µM (active) |  | 1.19 µM (inactive) | 2.62 µM (inactive) | 3.69 µM (inactive) | 0.468 µM (active) | 1.29 µM (inactive) | 3.75 µM (inactive) | 1.38 µM (inactive) | 19.6 µM (inactive) | > 52.4 µM (inactive) | 20.9 µM (inactive) | 1.32 µM (inactive) | 0.708 µM (active) | 33 µM (inactive) | 0.357 µM (active) | > 42.2 µM (inactive) | 16.1 µM (inactive) | 7.19 µM (inactive) |
